Measured values as given in patent US9061984B2 (University of Louisville Research Foundation, Inc., priority 2008, dated 2015).
Values after ≈ are worked out from the molar mass of the structure shown. Like-named read-outs stand apart in the source and are kept apart here.

Experiments:
VERO cells [1] = assay: Cytotoxicity on VERO cells (MTT), anti-T. cruzi study; settings: for IC50: Chlorocebus sabaeus, Vero
[2] = as above; settings: African green monkey, VERO cells
peritoneal macrophages = assay: Toxicity to peritoneal macrophages (Trypan Blue count); assay type: cell-based, BALB/C mouse
Procedure: (§1) Peritoneal macrophages were prepared as follows. Non-inflammatory macrophages (10^6) were collected from each BALB/C mouse. The cells adhered at 37° C. after 2 h under 5% CO2 in a CO2 incubator. The plates were then rinsed two to three times with 0.5 mL of RPMI+buffer MOPS without fetal calf serum to eliminate non-adhering cells. The supernatant on the plates was replaced by fresh medium (RPMI+glutamine+FCS+antibiotics), 0.5 mL of medium per well. To determine the toxicity of the compounds to macrophages, dilutions of compounds were added on a part of the macrophages prepared above. […] The medium was then removed and 1 μL of sterile Trypan Blue was added. Cover glasses N° 1 were left where cells were plated and then the number of macrophages in a microscope was determined with a haemocytometer. All experiments were performed in triplicate.

[3] = tested on: Trypanosoma cruzi (Tulahuen C4); assay: In vitro anti-T. cruzi activity (β-galactosidase CPRG colorimetric assay in VERO monolayer); assay type: cell-based; settings: for inhibition at 10 µg/mL / IC50: Trypanosoma cruzi, TULAHUEN, Vero; for inhibition at 10 µg/mL: 120 h, 10 μg/mL of each compound, 120 hours, read-out: T. cruzi Inhib. (%)
[4] = tested on: axenic amastigotes of L. amazonensis (strain MHOM/BR/76/LTB-012); assay: microbe, parasite or virus in culture; settings: Leishmania amazonensis
L. peruviana LCA08 = assay: Activity against macrophages infected with Leishmania amastigotes; settings: Leishmania peruviana, Macrophage, read-out: IC50 L. peruviana LCA08
L. amazonensis = settings: intralesional, compounds 5 mg/kg/day, Glucantime 33 mg Sb(v)/kg/day; for Mean lesion wt (mg) (±SD): BALB/c mice n=10; for % Variation of lesion wt / % reduction of parasite burden in the lesion: vs control
3T3 cells = assay: Cell growth inhibition bioassay (sulforhodamine B); assay type: cell-based, mouse; settings: 48 h, SRB; for GI50: Mus musculus, NIH3T3, read-out: GI50 in indicated cell line: 3T3
Procedure: (§2) The cytotoxicity of compounds was assayed as follows. […] Appropriate solvent controls were tested for comparison. The percent inhibition of cell growth relative to the control was evaluated colorimetrically using a sulforhodamine B dye by comparison to the control. The calorimetric procedure followed that published in Skehan et al., J. Nat. Cancer Inst., […], pp. 1107-1112 (1990) and Boyd & Paull, Drug Dev. Res., Vol. 34, pp. 91-109 (1995). […] The cell lines are: 3T3 cells are BALB/3T3 clone A31 embryonic mouse fibroblast cells; H460 cells are human large cell lung cancer cells; DU145 cells are human prostate carcinoma cells; MCF-7 cells are human breast adenocarcinoma cells; M-14 cells are human melanoma cells; HT-29 cells are human colon adenocarcinoma cells; PC3 cells are human prostate adenocarcinoma cells; K562 cells are human chronic myelogenous leukemia cells; and VERO cells are African Green Monkey kidney epithelial cells.

L. braziliensis PER006 = assay: Activity against macrophages infected with Leishmania amastigotes; settings: Leishmania braziliensis, Macrophage, read-out: IC50 L. braziliensis PER006
VERO cells [5] = assay: Cell growth inhibition bioassay (sulforhodamine B); assay type: cell-based, African Green Monkey; settings: 48 h, SRB; for GI50: Chlorocebus sabaeus, Vero, read-out: GI50 in indicated cell line: VERO
Procedure: as §2

[6] = Toxicity to peritoneal macrophages (Trypan Blue count); assay type: cell-based, BALB/C mouse; settings: BALB/C, mouse, Cytotoxicity Macrophages IC50
Procedure: as §1

M. tuberculosis H37Rv = assay: Conventional aerobic (MABA) culture assay, luminescence MIC; assay type: cell-based, Mycobacterium tuberculosis; settings: aerobic, 7 days, H37Rv; for MIC: Mycobacterium tuberculosis, 168 h
[7] = tested on: axenic amastigotes of L. amazonensis (strain MHOM/BR/76/LTB-012); settings: Table 8b
MCF-7 cells = assay: Cell growth inhibition bioassay (sulforhodamine B); assay type: cell-based, human; settings: 48 h, SRB; for GI50: Homo sapiens, MCF7, read-out: GI50 in indicated cell line: MCF-7
Procedure: as §2

K562 cells = assay: Cell growth inhibition bioassay (sulforhodamine B); assay type: cell-based, human; settings: 48 h, SRB; for GI50: Homo sapiens, K562, read-out: GI50 in indicated cell line: K562
Procedure: as §2

H460 cells = assay: Cell growth inhibition bioassay (sulforhodamine B); assay type: cell-based, human; settings: 48 h, SRB; for GI50: Homo sapiens, NCI-H460, read-out: GI50 in indicated cell line: H460
Procedure: as §2

HT-29 cells = assay: Cell growth inhibition bioassay (sulforhodamine B); assay type: cell-based, human; settings: 48 h, SRB; for GI50: Homo sapiens, HT-29, read-out: GI50 in indicated cell line: HT-29
Procedure: as §2

DU145 cells = assay: Cell growth inhibition bioassay (sulforhodamine B); assay type: cell-based, human; settings: 48 h, SRB; for GI50: Homo sapiens, DU-145, read-out: GI50 in indicated cell line: DU145
Procedure: as §2

M-14 cells = assay: Cell growth inhibition bioassay (sulforhodamine B); assay type: cell-based, human; settings: 48 h, SRB; for GI50: Homo sapiens, M14, read-out: GI50 in indicated cell line: M-14
Procedure: as §2

[8] = IC50 - VERO Cytotoxicity, Table 2
[9] = Mus musculus, Peritoneal macrophage, 48 h, Table 7, read-out: IC50 Macrophage
[10] = Table 2, read-out: IC50 - T. cruzi
[11] = Table 3, read-out: IC50 T. cruzi
[12] = 72 h, read-out: IC50 L. amazonensis

Row | Structure (SMILES) | IC50 (VERO cells [1]; read-out: IC50 VERO, Table 3) [µM] | IC50 [2, 8] [µg/mL] | IC50 (peritoneal macrophages; [9]) [µM] | inhibition at 10 µg/mL [3] [%] | IC50 [3, 10] [µg/mL] | IC50 [3, 11] [µM] | IC50 [4, 12] [µM] | IC50 ([2]; Cytotoxicity VERO Lab B, Lab B) [µg/mL] | IC50 (L. peruviana LCA08) [µg/mL] | GI50 (3T3 cells) [µg/mL] | IC50 (L. braziliensis PER006) [µg/mL] | GI50 (VERO cells [5]) [µg/mL] | IC50 at 48 h [6] [µM] | MIC (M. tuberculosis H37Rv) [µg/mL] | IC50 ([4]; read-out: L. amazonensis IC50) [µM] | Selectivity Index [7] | GI50 (MCF-7 cells) [µg/mL] | GI50 (K562 cells) [µg/mL] | GI50 (H460 cells) [µg/mL] | GI50 (HT-29 cells) [µg/mL] | also measured
1 | C=CCOc1cc(OC)c(C(=O)/C=C/c2ccc([N+](=O)[O-])cc2)c(OCC=C)c1 [Compound I-13, (2E)-1-[2-Methoxy-4,6-bis(2-propenyloxy)phenyl]-3-(4-nitrophenyl)-2-propen-1-one] | 12.6 | 5 (≈ 12.6 µM) | 13.2 | 68.6 | 1.62 | 4.1 | 8.3 | – | – | – | – | – | – | – | – | – | – | – | – | – | –
2 | CCc1ccc(/C=N\Nc2ncnc3sc4c(c23)CCCC4)cc1 [II-06] | – | – | – | – | – | – | – | 4 (≈ 11.9 µM) | 3.2 (≈ 9.51 µM) | 12.1 (≈ 36 µM) | 3.5 (≈ 10.4 µM) | 6.6 (≈ 19.6 µM) | 50.9 | > 100 | 5.3 | 9.6 | 6.2 (≈ 18.4 µM) | 3.7 (≈ 11 µM) | 9.5 (≈ 28.2 µM) | 10.8 (≈ 32.1 µM) | Mean lesion size (mm) (L. amazonensis; after 4 weeks treatment): 3.0 mm; Mean parasite quantification (per 10^6) in lesion per mg (±SD) (L. amazonensis; after 4 weeks treatment): 1.19 (±0.27) amastigotes (×10^6)/mg; Mean lesion wt (mg) (±SD) (L. amazonensis; after 4 weeks treatment): 70.9 (±9.9) mg; % Variation of lesion wt (L. amazonensis; after 4 weeks treatment): −17%; % reduction of parasite burden in the lesion (L. amazonensis; after 4 weeks treatment): 30%; Mean lesion size (mm) (L. amazonensis; after 7 weeks treatment): 4.7 mm; Mean parasite quantification (per 10^6) in lesion per mg (±SD) (L. amazonensis; after 7 weeks treatment): 1.46 (±0.30) amastigotes (×10^6)/mg; Mean lesion wt (mg) (±SD) (L. amazonensis; after 7 weeks treatment): 78.4 (±1.6) mg; % Variation of lesion wt (L. amazonensis; after 7 weeks treatment): 12%; % reduction of parasite burden in the lesion (L. amazonensis; after 7 weeks treatment): 2%; GI50 (DU145 cells): 19.8 µg/mL (≈ 58.8 µM); GI50 (M-14 cells): 64 µg/mL (≈ 190 µM)
3 | Brc1ccc(/C=N\Nc2ncnc3sc4c(c23)CCCC4)cc1 [II-30] | – | – | – | – | – | – | – | 6 (≈ 15.5 µM) | > 0.5 | 6.8 (≈ 17.6 µM) | > 0.5 | 2.8 (≈ 7.23 µM) | 3 | > 100 | 0.3 | 8.8 | 2.3 (≈ 5.94 µM) | 2.2 (≈ 5.68 µM) | 4.1 (≈ 10.6 µM) | 4.8 (≈ 12.4 µM) | Selectivity Index Lab B ([3]; IC50, VERO/IC50, T. cruzi, Lab B): 0.8; IC50 ([3]; Lab A, read-out: T. cruzi IC50 Lab A): 1.1 µg/mL; IC50 ([3]; Lab B, read-out: T. cruzi IC50 Lab B): 7.9 µg/mL; GI50 (DU145 cells): 5.6 µg/mL (≈ 14.5 µM); GI50 (M-14 cells): 13 µg/mL (≈ 33.6 µM)
4 | Cc1ccc(C=NNc2ncnc3sc4c(c23)CCCC4)cc1 [II-05] | – | – | – | – | – | – | – | – | – | – | – | – | – | – | – | – | – | – | – | – | Cytotoxicity VERO Lab B (VERO cells [1]; Lab B): 11.0; GI50 in indicated cell line: 3T3 (3T3 cells): 12.1 µg/mL (≈ 37.5 µM); GI50 in indicated cell line: VERO (VERO cells [5]): 10.0 µg/mL (≈ 31 µM); IC50 (peritoneal macrophages): 6.3 µM; MIC MABA (M. tuberculosis H37Rv): >100 µg/mL; IC50 ([7]; read-out: L. amazonensis IC50): 13.7 µM; GI50 in indicated cell line: MCF-7 (MCF-7 cells): 4.2 µg/mL (≈ 13 µM); GI50 in indicated cell line: K562 (K562 cells): 2.3 µg/mL (≈ 7.13 µM); GI50 in indicated cell line: H460 (H460 cells): 42.9 µg/mL (≈ 133 µM); GI50 in indicated cell line: HT-29 (HT-29 cells): >62.5 µg/mL; GI50 in indicated cell line: DU145 (DU145 cells): >62.5 µg/mL; GI50 in indicated cell line: M-14 (M-14 cells): >62.5 µg/mL
5 | C=CCOc1cc(OC)c(C(=O)/C=C/c2ccccc2F)c(OCC=C)c1 [Compound I-15, (2E)-3-(2-Fluorophenyl)-1-[2-methoxy-4,6-bis(2-propenyloxy)phenyl]-2-propen-1-one] | 16.3 | 6 (≈ 16.3 µM) | 13.3 | 66.5 | 2.29 | 6.2 | 9.5 | – | – | – | – | – | – | – | – | – | – | – | – | – | –
6 | C=CCOc1cc(OC)c(C(=O)/C=C/c2ccccc2)c(OCC=C)c1 [Compound I-08, (2E)-1-[2-Methoxy-4,6-bis(2-propenyloxy)phenyl]-3-(phenyl)-2-propen-1-one] | – | 6 (≈ 17.1 µM) | 14.8 | 71.5 | 6.7 | 17.1 | 9.4 | – | – | – | – | – | – | – | – | – | – | – | – | – | IC50 (VERO cells [1]; read-out: IC50 VERO): 17.1 µM
